Reference: patent publication US20260356819A1, “OXOISOINDOLINYL-SUBSTITUTED […] DERIVATIVE AND USE THEREOF” (GLUETACS THERAPEUTICS (SHANGHAI) CO., LTD., priority 2023, published 2026)

Experiments:
Assay type in all cases: cell-based
Conditions in all cases: compounds at 50 nM and 500 nM
[1] = molecular target: T1, IKZF3 (Homo sapiens, UniProt Q96SW2+Q9UKT9); test: Western blot degradation of IKZF3 in hPBMCs (24 h)
T1 construct: The supernatant was aspirated as the extracted total cell protein; endogenous in cells; host or cells: human peripheral blood mononuclear cells (hPBMCs)
In short: (§1)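 Degradation in primary human PBMCs after 24 h compound exposure at 50 and 500 nM. Western blot band intensities, normalised to an internal control protein, expressed as % protein remaining relative to DMSO.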

[2] = molecular target: T2, GSPT1 (Homo sapiens, UniProt P15170+Q96SW2); test: Western blot degradation of GSPT1 in hPBMCs (24 h)
T2 construct: The supernatant was aspirated as the extracted total cell protein; endogenous in cells; host or cells: human peripheral blood mononuclear cells (hPBMCs)
In short: as §1

[3] = molecular target: T3, IKZF1 (Homo sapiens, UniProt Q13422+Q96SW2); test: Western blot degradation of IKZF1 in hPBMCs (24 h)
T3 construct: The supernatant was aspirated as the extracted total cell protein; endogenous in cells; host or cells: human peripheral blood mononuclear cells (hPBMCs)
In short: as §1

[4] = molecular target: T4, WEE1 (Homo sapiens, UniProt P30291+Q96SW2); test: Western blot degradation of WEE1 in hPBMCs (24 h)
T4 construct: The supernatant was aspirated as the extracted total cell protein; endogenous in cells; host or cells: human peripheral blood mononuclear cells (hPBMCs)
In short: as §1

[5] = molecular target: T5, IKZF2 (Homo sapiens, UniProt Q96SW2+Q9UKS7); test: Western blot degradation of IKZF2 in hPBMCs (24 h)
T5 construct: The supernatant was aspirated as the extracted total cell protein; endogenous in cells; host or cells: human peripheral blood mononuclear cells (hPBMCs)
In short: as §1

[6] = molecular target: T6, CK1α (Homo sapiens, UniProt P48729+Q96SW2); test: Western blot degradation of CK1α in hPBMCs (24 h)
T6 construct: The supernatant was aspirated as the extracted total cell protein; endogenous in cells; host or cells: human peripheral blood mononuclear cells (hPBMCs)
In short: as §1

T4 sequence (P30291 whole entry): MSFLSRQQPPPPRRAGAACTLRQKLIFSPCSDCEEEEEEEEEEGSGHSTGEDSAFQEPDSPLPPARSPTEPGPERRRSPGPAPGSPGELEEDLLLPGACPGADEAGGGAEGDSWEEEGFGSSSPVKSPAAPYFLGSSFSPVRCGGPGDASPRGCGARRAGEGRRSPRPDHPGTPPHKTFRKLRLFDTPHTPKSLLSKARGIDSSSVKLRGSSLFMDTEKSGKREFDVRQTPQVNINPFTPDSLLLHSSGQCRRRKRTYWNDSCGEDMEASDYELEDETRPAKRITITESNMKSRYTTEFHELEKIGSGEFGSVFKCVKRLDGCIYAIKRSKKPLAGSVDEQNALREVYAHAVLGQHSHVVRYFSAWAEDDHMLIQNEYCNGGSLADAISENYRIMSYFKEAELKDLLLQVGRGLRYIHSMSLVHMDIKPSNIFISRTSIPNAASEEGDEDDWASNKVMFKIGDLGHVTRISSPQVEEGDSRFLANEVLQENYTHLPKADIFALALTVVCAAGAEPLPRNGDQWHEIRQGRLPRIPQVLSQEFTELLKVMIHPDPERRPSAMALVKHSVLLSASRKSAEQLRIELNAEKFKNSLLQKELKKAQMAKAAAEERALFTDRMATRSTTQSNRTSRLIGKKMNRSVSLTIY
T4 sequence (Q96SW2 whole entry): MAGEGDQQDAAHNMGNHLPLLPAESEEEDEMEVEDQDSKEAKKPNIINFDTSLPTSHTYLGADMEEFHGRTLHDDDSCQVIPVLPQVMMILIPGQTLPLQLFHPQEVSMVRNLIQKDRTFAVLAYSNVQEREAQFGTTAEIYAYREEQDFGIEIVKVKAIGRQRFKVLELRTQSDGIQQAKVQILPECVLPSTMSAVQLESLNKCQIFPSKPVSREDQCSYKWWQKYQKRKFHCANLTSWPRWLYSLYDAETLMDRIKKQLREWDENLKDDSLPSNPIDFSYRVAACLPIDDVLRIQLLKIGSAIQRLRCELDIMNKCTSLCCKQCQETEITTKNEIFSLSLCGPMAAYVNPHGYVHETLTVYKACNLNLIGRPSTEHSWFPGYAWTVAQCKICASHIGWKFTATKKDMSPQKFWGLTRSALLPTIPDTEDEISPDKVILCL
T4 sequence (Q16531 whole entry partner): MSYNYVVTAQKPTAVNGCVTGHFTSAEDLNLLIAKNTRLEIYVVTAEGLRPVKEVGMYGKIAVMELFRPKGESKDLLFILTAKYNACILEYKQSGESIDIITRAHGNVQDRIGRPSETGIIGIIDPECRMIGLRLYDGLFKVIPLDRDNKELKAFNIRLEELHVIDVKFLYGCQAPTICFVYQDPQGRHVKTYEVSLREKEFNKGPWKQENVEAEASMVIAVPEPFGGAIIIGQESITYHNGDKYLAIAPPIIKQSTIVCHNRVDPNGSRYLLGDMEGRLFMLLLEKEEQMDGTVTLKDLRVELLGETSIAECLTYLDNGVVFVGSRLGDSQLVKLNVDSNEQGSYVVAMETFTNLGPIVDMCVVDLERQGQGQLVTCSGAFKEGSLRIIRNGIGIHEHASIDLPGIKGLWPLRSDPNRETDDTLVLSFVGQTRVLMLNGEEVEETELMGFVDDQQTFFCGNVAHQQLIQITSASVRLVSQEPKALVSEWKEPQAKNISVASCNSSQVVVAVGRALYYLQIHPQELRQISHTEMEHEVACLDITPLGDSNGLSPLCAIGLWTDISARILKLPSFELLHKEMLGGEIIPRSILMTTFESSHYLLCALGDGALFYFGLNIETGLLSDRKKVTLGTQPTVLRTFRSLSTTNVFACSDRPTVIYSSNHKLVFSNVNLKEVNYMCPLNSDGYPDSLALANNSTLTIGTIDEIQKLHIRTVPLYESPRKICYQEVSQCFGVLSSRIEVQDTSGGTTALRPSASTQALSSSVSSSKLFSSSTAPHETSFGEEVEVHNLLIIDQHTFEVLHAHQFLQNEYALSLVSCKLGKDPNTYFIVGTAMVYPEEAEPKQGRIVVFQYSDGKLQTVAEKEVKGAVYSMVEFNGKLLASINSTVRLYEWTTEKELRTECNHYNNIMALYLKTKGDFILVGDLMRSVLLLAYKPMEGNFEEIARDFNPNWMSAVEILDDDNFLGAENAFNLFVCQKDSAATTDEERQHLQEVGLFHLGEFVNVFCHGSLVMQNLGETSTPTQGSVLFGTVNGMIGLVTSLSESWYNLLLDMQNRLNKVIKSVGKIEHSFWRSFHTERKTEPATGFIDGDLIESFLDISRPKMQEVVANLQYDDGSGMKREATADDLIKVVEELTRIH
T5 sequence (Q9UKS7 whole entry): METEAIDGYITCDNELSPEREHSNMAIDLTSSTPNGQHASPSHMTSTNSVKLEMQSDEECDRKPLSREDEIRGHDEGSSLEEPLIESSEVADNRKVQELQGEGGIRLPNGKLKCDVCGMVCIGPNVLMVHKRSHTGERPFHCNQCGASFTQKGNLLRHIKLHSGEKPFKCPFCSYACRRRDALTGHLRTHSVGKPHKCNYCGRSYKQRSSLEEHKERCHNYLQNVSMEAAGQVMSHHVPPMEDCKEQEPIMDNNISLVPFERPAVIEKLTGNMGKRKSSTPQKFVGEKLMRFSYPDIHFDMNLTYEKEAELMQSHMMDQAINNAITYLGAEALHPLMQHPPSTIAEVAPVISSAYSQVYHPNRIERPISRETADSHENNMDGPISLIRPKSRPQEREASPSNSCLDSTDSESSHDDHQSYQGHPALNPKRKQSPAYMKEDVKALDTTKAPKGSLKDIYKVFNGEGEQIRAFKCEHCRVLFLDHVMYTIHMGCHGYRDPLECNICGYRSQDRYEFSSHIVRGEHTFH
T5 sequence (Q96SW2 whole entry): as the sequence (Q96SW2 whole entry) above
T5 sequence (Q16531 whole entry partner): as the sequence (Q16531 whole entry partner) above
T3 sequence (Q13422 whole entry): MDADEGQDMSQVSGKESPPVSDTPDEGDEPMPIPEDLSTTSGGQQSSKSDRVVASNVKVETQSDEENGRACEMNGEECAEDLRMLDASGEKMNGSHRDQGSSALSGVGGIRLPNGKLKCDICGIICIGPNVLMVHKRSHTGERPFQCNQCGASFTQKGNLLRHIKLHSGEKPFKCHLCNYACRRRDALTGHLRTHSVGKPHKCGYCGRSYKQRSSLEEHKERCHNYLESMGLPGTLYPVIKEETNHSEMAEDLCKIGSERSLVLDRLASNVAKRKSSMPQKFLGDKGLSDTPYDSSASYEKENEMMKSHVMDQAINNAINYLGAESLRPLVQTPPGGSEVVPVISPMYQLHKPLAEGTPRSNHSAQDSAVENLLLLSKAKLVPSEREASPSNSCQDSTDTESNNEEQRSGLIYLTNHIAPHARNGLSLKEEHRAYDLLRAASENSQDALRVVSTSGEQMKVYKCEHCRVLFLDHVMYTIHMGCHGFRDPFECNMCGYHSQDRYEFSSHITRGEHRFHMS
T3 sequence (Q96SW2 whole entry): as the sequence (Q96SW2 whole entry) above
T3 sequence (Q16531 whole entry partner): as the sequence (Q16531 whole entry partner) above
T6 sequence (P48729 whole entry): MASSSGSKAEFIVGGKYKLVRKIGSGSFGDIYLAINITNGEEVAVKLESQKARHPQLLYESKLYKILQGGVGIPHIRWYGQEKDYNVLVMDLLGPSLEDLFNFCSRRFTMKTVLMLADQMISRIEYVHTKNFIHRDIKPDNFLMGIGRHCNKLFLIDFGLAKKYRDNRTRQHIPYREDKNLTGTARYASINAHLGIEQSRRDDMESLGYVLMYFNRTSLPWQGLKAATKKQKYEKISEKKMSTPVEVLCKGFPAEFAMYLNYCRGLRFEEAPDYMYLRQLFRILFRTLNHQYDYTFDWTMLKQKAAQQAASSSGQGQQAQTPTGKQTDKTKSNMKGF
T6 sequence (Q96SW2 whole entry): as the sequence (Q96SW2 whole entry) above
T6 sequence (Q16531 whole entry partner): as the sequence (Q16531 whole entry partner) above
T2 sequence (P15170 whole entry): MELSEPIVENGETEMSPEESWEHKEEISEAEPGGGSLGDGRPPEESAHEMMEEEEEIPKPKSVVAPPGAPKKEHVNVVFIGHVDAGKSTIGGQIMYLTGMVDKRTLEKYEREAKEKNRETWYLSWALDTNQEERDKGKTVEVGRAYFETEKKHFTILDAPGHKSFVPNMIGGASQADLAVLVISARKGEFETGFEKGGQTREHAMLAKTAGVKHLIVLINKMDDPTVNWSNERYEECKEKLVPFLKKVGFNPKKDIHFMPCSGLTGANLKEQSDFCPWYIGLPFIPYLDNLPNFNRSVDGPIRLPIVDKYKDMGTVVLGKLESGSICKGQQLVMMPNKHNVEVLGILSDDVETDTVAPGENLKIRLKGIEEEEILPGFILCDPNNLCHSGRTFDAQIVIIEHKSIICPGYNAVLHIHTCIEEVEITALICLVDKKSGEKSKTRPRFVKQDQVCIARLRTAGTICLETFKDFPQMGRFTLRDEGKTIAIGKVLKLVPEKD
T2 sequence (Q96SW2 whole entry): as the sequence (Q96SW2 whole entry) above
T2 sequence (Q16531 whole entry partner): as the sequence (Q16531 whole entry partner) above

SMILES | IKZF3 substrate protein remaining % [1] | GSPT1 substrate protein remaining % [2] | IKZF1 substrate protein remaining % [3] | WEE1 substrate protein remaining % [4] | IKZF2 substrate protein remaining % [5] | CK1α substrate protein remaining % [6]
O=C1CCN(N2Cc3cc(CN4CC=C(c5ccnc(F)c5F)CC4)ccc3C2=O)C(=O)N1 [GT-06397, 1-(5-((2′,3′-difluoro-3,6-dihydro-[4,4′-bipyridin]-1(2H)-yl)methyl)-1-oxoisoindolin-2-yl)dihydropyrimidine-2,4(1H,3H)-dione] | B (80%< substrate protein remaining % ≤100%) | A (0% ≤ substrate protein remaining % ≤80%) | B (80%< substrate protein remaining % ≤100%) | A (0% ≤ substrate protein remaining % ≤80%) | A (0% ≤ substrate protein remaining % ≤80%) | B (80%< substrate protein remaining % ≤100%)
CC1CN(Cc2ccc3c(c2)C(=O)N(N2CCC(=O)NC2=O)C3=O)CC(C)N1C(c1ccccc1)c1ccccc1 (stereo not drawn) [GT-06430, 5-((4-benzhydryl-3,5-dimethylpiperazin-1-yl)methyl)-2-(2,4-dioxotetrahydropyrimidin-1(2H)-yl)isoindoline-1,3-dione] | A (0% ≤ substrate protein remaining % ≤80%) | A (0% ≤ substrate protein remaining % ≤80%) | A (0% ≤ substrate protein remaining % ≤80%) | A (0% ≤ substrate protein remaining % ≤80%) | B (80%< substrate protein remaining % ≤100%) | B (80%< substrate protein remaining % ≤100%)
CC1CN(Cc2ccc3c(c2)CN(N2CCC(=O)NC2=O)C3=O)CC(C)N1C(c1ccccc1)c1ccccc1 (stereo not drawn) [GT-06431, 1-(5-((4-benzhydryl-3,5-dimethylpiperazin-1-yl)methyl)-1-oxoisoindolin-2-yl)dihydropyrimidine-2,4(1H,3H)-dione] | B (80%< substrate protein remaining % ≤100%) | A (0% ≤ substrate protein remaining % ≤80%) | A (0% ≤ substrate protein remaining % ≤80%) | A (0% ≤ substrate protein remaining % ≤80%) | A (0% ≤ substrate protein remaining % ≤80%) | B (80%< substrate protein remaining % ≤100%)
O=C1CCN(N2C(=O)c3ccc(CN4CCN(Cc5ccccc5-c5ccc(Cl)cc5)CC4)cc3C2=O)C(=O)N1 [GT-06432, 5-((4-((4′-chloro-[1,1′-biphenyl]-2-yl)methyl)piperazin-1-yl)methyl)-2-(2,4-dioxotetrahydropyrimidin-1(2H)-yl)isoindoline-1,3-dione] | B (80%< substrate protein remaining % ≤100%) | A (0% ≤ substrate protein remaining % ≤80%) | A (0% ≤ substrate protein remaining % ≤80%) | A (0% ≤ substrate protein remaining % ≤80%) | B (80%< substrate protein remaining % ≤100%) | B (80%< substrate protein remaining % ≤100%)
O=C1CCN(N2Cc3cc(CN4CCN(Cc5ccccc5-c5ccc(Cl)cc5)CC4)ccc3C2=O)C(=O)N1 [GT-06433, 1-(5-((4-((4′-chloro-[1,1′-biphenyl]-2-yl)methyl)piperazin-1-yl)methyl)-1-oxoisoindolin-2-yl)dihydropyrimidine-2,4(1H,3H)-dione] | A (0% ≤ substrate protein remaining % ≤80%) | A (0% ≤ substrate protein remaining % ≤80%) | A (0% ≤ substrate protein remaining % ≤80%) | A (0% ≤ substrate protein remaining % ≤80%) | A (0% ≤ substrate protein remaining % ≤80%) | B (80%< substrate protein remaining % ≤100%)
Cc1ccsc1C1=CCN(Cc2ccc3c(c2)C(=O)N(N2CCC(=O)NC2=O)C3=O)CC1 [GT-06434, 2-(2,4-dioxotetrahydropyrimidin-1(2H)-yl)-5-((4-(3-methylthiophen-2-yl)-3,6-dihydropyridin-1(2H)-yl)methyl)isoindoline-1,3-dione] | A (0% ≤ substrate protein remaining % ≤80%) | A (0% ≤ substrate protein remaining % ≤80%) | B (80%< substrate protein remaining % ≤100%) | A (0% ≤ substrate protein remaining % ≤80%) | A (0% ≤ substrate protein remaining % ≤80%) | B (80%< substrate protein remaining % ≤100%)
O=C1CCN(N2C(=O)c3ccc(CN4CC=C(c5ccsc5)CC4)cc3C2=O)C(=O)N1 [GT-06435, 2-(2,4-dioxotetrahydropyrimidin-1(2H)-yl)-5-((4-(thiophen-3-yl)-3,6-dihydropyridin-1(2H)-yl)methyl)isoindoline-1,3-dione] | A (0% ≤ substrate protein remaining % ≤80%) | A (0% ≤ substrate protein remaining % ≤80%) | B (80%< substrate protein remaining % ≤100%) | A (0% ≤ substrate protein remaining % ≤80%) | A (0% ≤ substrate protein remaining % ≤80%) | B (80%< substrate protein remaining % ≤100%)
C[C@@H]1CN(C(c2ccccc2)c2ccccc2)CCN1Cc1ccc2c(c1)CN(N1CCC(=O)NC1=O)C2=O [GT-06448, (R)-1-(5-((4-benzhydryl-2-methylpiperazin-1-yl)methyl)-1-oxoisoindolin-2-yl)dihydropyrimidine-2,4(1H,3H)-dione] | A (0% ≤ substrate protein remaining % ≤80%) | A (0% ≤ substrate protein remaining % ≤80%) | B (80%< substrate protein remaining % ≤100%) | B (80%< substrate protein remaining % ≤100%) | A (0% ≤ substrate protein remaining % ≤80%) | B (80%< substrate protein remaining % ≤100%)
C[C@@H]1CN(C(c2ccccc2)c2ccccc2)CCN1Cc1ccc2c(c1)C(=O)N(N1CCC(=O)NC1=O)C2=O [GT-06449, (R)-5-((4-benzhydryl-2-methylpiperazin-1-yl)methyl)-2-(2,4-dioxotetrahydropyrimidin-1(2H)-yl)isoindoline-1,3-dione] | A (0% ≤ substrate protein remaining % ≤80%) | A (0% ≤ substrate protein remaining % ≤80%) | B (80%< substrate protein remaining % ≤100%) | B (80%< substrate protein remaining % ≤100%) | A (0% ≤ substrate protein remaining % ≤80%) | B (80%< substrate protein remaining % ≤100%)
O=C1CCN(N2Cc3cc(CN4CC5CCC4CN5C(c4ccccc4)c4ccccc4)ccc3C2=O)C(=O)N1 (stereo not drawn) [GT-06450, 1-(5-((5-benzhydryl-2,5-diazabicyclo[2.2.2]octan-2-yl)methyl)-1-oxoisoindolin-2-yl)dihydropyrimidine-2,4(1H,3H)-dione] | A (0% ≤ substrate protein remaining % ≤80%) | A (0% ≤ substrate protein remaining % ≤80%) | B (80%< substrate protein remaining % ≤100%) | A (0% ≤ substrate protein remaining % ≤80%) | A (0% ≤ substrate protein remaining % ≤80%) | B (80%< substrate protein remaining % ≤100%)
O=C1CCN(N2C(=O)c3ccc(CN4CC5CCC4CN5C(c4ccccc4)c4ccccc4)cc3C2=O)C(=O)N1 (stereo not drawn) [GT-06451, 5-((5-benzhydryl-2,5-diazabicyclo[2.2.2]octan-2-yl)methyl)-2-(2,4-dioxotetrahydropyrimidin-1(2H)-yl)isoindoline-1,3-dione] | B (80%< substrate protein remaining % ≤100%) | B (80%< substrate protein remaining % ≤100%) | B (80%< substrate protein remaining % ≤100%) | A (0% ≤ substrate protein remaining % ≤80%) | B (80%< substrate protein remaining % ≤100%) | B (80%< substrate protein remaining % ≤100%)
O=C1CCN(N2Cc3cc(CN4CC5CCC(C4)N5C(c4ccccc4)c4ccccc4)ccc3C2=O)C(=O)N1 [GT-06452, 1-(5-((8-benzhydryl-3,8-diazabicyclo[3.2.1]octan-3-yl)methyl)-1-oxoisoindolin-2-yl)dihydropyrimidine-2,4(1H,3H)-dione] | B (80%< substrate protein remaining % ≤100%) | B (80%< substrate protein remaining % ≤100%) | B (80%< substrate protein remaining % ≤100%) | A (0% ≤ substrate protein remaining % ≤80%) | B (80%< substrate protein remaining % ≤100%) | B (80%< substrate protein remaining % ≤100%)
